# Like-named read-outs stand apart in the source and are kept apart here.
# Experiments:
# [1] = test system: long-lived protein degradation in TFEB-overexpressing cells; test: Degradation of long-lived proteins (FIG. 8); format: cell-based; conditions: 3-MA added during 4 h incubation
# Experimental: FIG. 8 TFEB increases autophagic proteolysis. Rate of long-lived protein degradation in TFEB-overexpressing, TFEB-depleted and control cells in either normal or starved condition. 3-methyl adenine (3MA) was added where indicated (Error bars represent standard deviations. p value (*)<0.05).
# Sub-confluent cells were incubated with L-U^14C-serine for 20 h and chased for 1 h with cold media to degrade short-lived proteins. Subsequently cells were incubated with either normal media or starvation media (eventually in the presence of 3-MA) for 4 h. The rate of long-lived protein degradation was calculated from the ratio of soluble radioactivity in the media to that insoluble in the acid-precipitable cell pellet.
# The applicants next measured the rate of delivery of autophagosome to lysosome using an RFP-GFP tandem tagged LC3 protein (9), which discriminates early autophagic organelles (GFP-positive/mRFP-positive) from acidified autolysosomes (GFP-negative/mRFP-positive), as the GFP signal (but not the mRFP) is quenched inside acidic compartments (9). […] Functional evidence of TFEB role in the regulation of autophagy came from the observation that degradation of long-lived proteins was enhanced by TFEB overexpression, and reduced by TFEB knock-down. This enhancement was abolished by the autophagy inhibitor 3-methyl adenine (3-MA) (10) (FIG. 8).
# [2] = format: in vivo; conditions: MSD mice, oral gavage 0.3 mg/day/mouse, 10 days
# Experimental: (§1) Multiple Sulfatase Deficiency (MSD) mice were treated with placebo (n=3) or torin 2 (n=3) during 10 days (gavage-oral administration; 0.3 mg torin 2/day/mouse in 50% PEG400). […] After the treatment liver tissues were collected and GAG accumulation was determined by alcian blue staining.
# TFEB [3] = test: High content TFEB-GFP nuclear translocation assay; format: cell-based; conditions: Homo sapiens, TFEB-GFP HeLa cells
# Experimental: (§2) Immunoblotting of protein extracts isolated from HeLa cells treated overnight, as indicated. Membranes were probed with antibodies for p-T202/Y204-ERK1/2, ERK1/2, p-T389-S6K, and S6K to measure ERK and mTORC1 activities. […] FLAG immunoblotting of cytosolic and nuclear fractions isolated from TFEB-3×FLAG HeLa cells cultured in amino acid-free media and subsequently stimulated as indicated for at least 3 h. Correct subcellular fractionation was verified with H3 and tubulin antibodies. […] After 3 h at 37° C. in RPMI medium containing one of each of the compounds, the cells were washed, fixed, and stained with DAPI and photographed by using confocal automated microscopy (Opera high content system, Perkin Elmer). […] Scale bars represent 30 μm. […] The EC50 for each compound was calculated using Prism software (see Materials and Methods for details). […] Antibody used were p-T389-S6K, S6K and FLAG. […] HeLa cells stably expressing Flag-3×TFEB were infected with lentiviruses encoding a Short hairpin (Sh-) RNA targeting luciferase (control) or RagC and RagD mRNAs. […] TFEB localization was detected with a FLAG antibody, whereas tubulin and H3 were used as controls for the cytosolic and nuclear fraction, respectively; levels of S6K phosphorylation were used to test RagC and RagD knockdown efficiency.
# After 3 hours at 37° C. in RPMI medium cells were washed, fixed, and stained with DAPI. For the acquisition of the images, ten pictures per each well of the 384-well plate were taken by using confocal automated microscopy (Opera high content system, Perkin Elmer). A dedicated script was developed to perform the analysis of TFEB localization on the different images (Acapella software, Perkin Elmer). The script calculates the ratio value resulting from the average intensity of nuclear TFEB-GFP fluorescence divided by the average of the cytosolic intensity of TFEB-GFP fluorescence. The results were normalized using negative (RPMI medium) and positive (HBSS starvation) control samples in the same plate. The data are represented by the percentage of nuclear translocation at the different concentrations of each compound using Prism software (GraphPad software). The EC50 for each compound was calculated using non-linear regression fitting (Prism software).
# In order to find additional small molecules able to induce the translocation of TFEB from the cytosol to the nucleus, the applicants developed a cell-based high content assay using stable HeLa cells overexpressing TFEB fused to the green fluorescent protein (TFEB-GFP). In the assay imaging of treated cells is acquired by an automated confocal microscope (OPERA system) and the analysis of those images with Acapella image software calculates the ratio of the average of fluorescence intensity of TFEB-GFP between the cytosol and nucleus of the cell (see Materials and methods for details). […] They tested ten concentrations for each inhibitor.
# [4] = test system: vacuolization in MSD cells; test: Electron microscopy of vacuolization in differentiated MSD NSCs (FIG. 23); format: cell-based, mouse
# Experimental: Differentiated NSC were fixed on glutaraldehyde and processed for standard electron microscopy.
# Cells were washed with PBS, fixed in 0.05% glutaraldehyde, and dissolved in 0.2 M Hepes buffer (pH 7.4) for 30 min at room temperature. The cells were then post-fixed for 2 h in OsO4. After dehydration in graded series of ethanol, the cells were embedded in Epon 812 (Fluka) and polymerized at 60° C. for 72 h. Thin sections were cut at the Leica EM UC6, counterstained with uranyl acetate and lead citrate.
# [5] = test system: Multiple Sulfatase Deficiency (MSD) mice; test: Liver GAG accumulation by alcian blue staining in treated MSD mice (FIG. 24); format: in vivo; conditions: oral gavage 0.3 mg/day/mouse in 50% PEG400, 10 days, n=3
# Experimental: FIG. 24 Torin 2 reduces GAG accumulation in the liver of MSD mice. MSD mice were treated with placebo (MSD—750) or torin2 (MSD—727) during 10 days (oral administration; 0.3 mg torin 2/day/mouse in 50% PEG400). After the treatment liver tissues were collected and GAG accumulation was determined by alcian blue staining (black spots).
# as §1
# Sections of paraffin-embedded liver tissue were stained with 1% Alcian blue (Sigma-Aldrich) and counterstained with Nuclear-Fast red (Sigma-Aldrich).
# [6] = test system: glycosaminoglycan (GAG) accumulation in MSD NSCs; test: Alcian blue staining of GAGs in differentiated NSCs from MSD mice (FIG. 22); format: cell-based, mouse; conditions: glia-differentiated MSD NSCs, 10 nM, 24 hours, versus DMSO
# Experimental: After 24 hours, the GAG content was determined by alcian blue (AB) staining. Both torins were able to reduce GAG staining in MSD treated cells as compared to DMSO treated cells.
# Neuronal progenitor cells were isolated from cortices of WT and MSD pups (P0) by tissue homogenization using the neural tissue dissociation kit and separation using magnetic sorting of cells expressing the stem cell marker prominin-1 (Miltenyi Biotec Srl). Neuronal progenitor cells were maintained in ESGRO complete medium (Hyclone) in the presence of EGF and FGF2 growth factors (Prepotech). Where indicated, neural stem cells (NSCs) were differentiated by removing growth factors and incubate in ESGRO medium containing 2% of serum for at least 48 h.
# Neuronal progenitor cells were isolated from cortices of WT and MSD pups (P0) by using standard protocols. Neuronal stem cells (NSCs) were fixed in Methacarn (60% Methanol; 10% Acetic Acid; 30% Chloroform) for 15 min at RT. After washing the cells were stained for 3 hours in 1% alcian blue pH 2.5, rinsed in 0.3% acetic acid and water and mounted in 100% for visualization.
# TFEB [7] = test: Lysosomal stress: TFEB-3xFLAG nuclear/cytoplasmic fractionation immunoblot in HeLa and HEK-293T cells (FIG. 18); format: cell-based; conditions: treated overnight; chloroquine 100 μM, Salicylihalamide A 2 μM
# From the text: FIG. 18 Lysosomal stress induces TFEB nuclear translocation. […] Histone 3 (H3) and tubulin were used as nuclear and cytosolic markers, respectively. Blots are representative of triplicate experiments.
# The mouse anti-TFEB monoclonal antibody was purchased from My Biosource catalogue No. MBS 120432. To generate anti-pS142 specific antibodies, rabbits were immunized with the following peptide coupled to KLH: AGNSAPN{pSer}[…]. Following the fourth immunization, rabbits were sacrificed and the serum was collected. Non-phosphospecific antibodies were depleted from the serum by circulation through a column containing the nonphosphorylated antigene. The phosphospecific antibodies were subsequently purified using a column containing the phosphorylated peptide. Cells were lysed with M-PER buffer (Thermo) containing protease and phosphatase inhibitors (Sigma); nuclear/cytosolic fractions were isolated as above described. Proteins were separated by SDS-PAGE (Invitrogen; reduced NuPAGE 4-12% Bis-tris Gel, MES SDS buffer). If needed, the gel was stained using 20 ml Imperial Protein Stain (Thermo Fisher) at room temperature for 1 h and de-stained with water. […]
# TFEB subcellular localization was then analysed in HeLa and HEK-293T cells transiently transfected with a TFEB-3×FLAG plasmid and treated overnight with inhibitors of lysosomal function.
# mTORC1 = mTORC1 activity by level of p-P70S6K in HeLa cells treated overnight (FIG. 19A); format: cell-based
# Experimental: as §2
# TFEB target genes = test: qPCR of TFEB target genes in primary hepatocytes (FIG. 21B, C); format: cell-based, mouse; conditions: hepatocytes from TFEB conditional knockout mice (Tcfebflox/flox; alb-CRE)
# From the text: (§3) Subsequently, cells were lysed and protein extracts were immunoblotted with the indicated antibodies. […] Quantitative PCR (qPCR) of TFEB target genes in primary hepatocytes from control (flox/flox) and Tcfeb−/− (flox/flox; alb-Cre) mice. […] The expression levels are shown as % increased expression of the treated versus the corresponding untreated samples. Values represent means±s.d. of three independent hepatocyte preparations (three mice/genotype). Student's t-test (two tailed) *P-value ≦0.05.
# mTOR = mTOR (Mus musculus, UniProt Q9JLN9); conditions: primary hepatocytes treated overnight
# From the text: as §3
smiles,measurement,setting,value
Cn1cnc(N)c2ncnc1-2 [3-methyl adenine],enhancement of long-lived protein degradation by TFEB overexpression,[1],abolished
Nc1ccc(-c2ccc3ncc4ccc(=O)n(-c5cccc(C(F)(F)F)c5)c4c3c2)cn1 [TORIN 2],body weight after treatment,[2],no weight differences
same,survival,[2],all the mice treated survived
same,EC50,"TFEB [3]; 3 h, ten concentrations 2.54 nM to 50 μM (FIG. 19D), read-out: EC50, TFEB nuclear translocation",1670 nM
same,EC50,"TFEB [3]; mobilization of cytosolic TFEB to the nucleus, 3 h at 37° C. in RPMI, ten concentrations 50 μM to 2.54 nM, 4 runs, read-out: Average EC50",< 7000 nM
same,cellular vacuolization,[4],reduces vacuolization
same,GAG staining in liver,[5],significant reduction
same,alcian blue-stained GAGs,[6],striking reduction
CC/C=C\C=C/C(=O)N/C=C/C[C@H]1C[C@@H](O)[C@@H](C)C/C=C/Cc2cccc(O)c2C(=O)O1 [Salicylihalamide A],nuclear translocation of exogenously expressed TFEB,TFEB [7],induced nuclear translocation
same,mTORC1 activity as level of p-P70S6K,mTORC1,inhibited mTORC1 activity
CCN(CC)CCCC(C)Nc1ccnc2cc(Cl)ccc12 (centres unmarked) [chloroquine],nuclear translocation of exogenously expressed TFEB,TFEB [7],induced nuclear translocation
same,transcriptional response of TFEB target genes versus control hepatocytes,TFEB target genes,significantly blunted
same,mTOR activity as level of p-S6K,mTOR,inhibited mTOR
same,mTORC1 activity as level of p-P70S6K,mTORC1,inhibited mTORC1 activity
